Publication PMC7011792 (Journal of Enzyme Inhibition and Medicinal Chemistry, 2017)
Read-outs that look alike come from different tables or passages of the source.

Tests used:
Aβ1–42 = target: T1, Aβ1–42 (Homo sapiens, UniProt P05067); assay: Inhibition of self-induced Aβ1–42 aggregation (Thioflavin T assay); type: biochemical; details: compound 25 μM, 24 h, read-out: Inhibitory rate on self-induced Aβ1-42 aggregation
T1 construct: aliquots of 2.0 µL of Aβ1–42 (AS-64129–05 Anaspec Inc.); purchased Anaspec Inc. AS-64129–05
Procedure: Inhibitory effects of the compounds on self-induced Aβ1–42 aggregation were evaluated using a Thioflavin T (ThT)-(T3516, Sigma-Aldrich, St. Louis, MO) binding assay according to the previously reported method. […] The Aβ1–42 and the test sample solutions were incubated for 24 h at the room temperature.
The inhibitory rate of Aβ1–42 self-induced aggregation was calculated according to the following equation: (1-IFi/IFc) × 100%. IFi and IFc were the fluorescence intensities in the presence and absence of inhibitors, respectively, after subtracting the background fluorescence of the 5 mM Thioflavin T solution. Each measurement was repeated in triplicate. The inhibitory rate of the test compound was shown in mean ± SD.

ICR mice [1] = details: for ALT (U/L) / AST (U/L): mice serum, n = 6
Procedure: The activity of AST and ALT, two indicators of liver damage, was determined using corresponding assay kit (EF551 and EF550 for ALT, EH027, and EF548 for AST, Wako, Japan).
One hour after the collection of retrobulbar blood, mice were sacrificed and livers were harvested for morphological studies by using immunohistochemical method. Two 3 mm sections of each liver extending from the hilus to the margin of the left lateral lobe were isolated by Ultra-Thin Semiautomatic Microtome (Leica RM2245, Germany) and immediately placed in 10% buffered formaldehyde, fixed for two days, and embedded together in one paraffin block by using Paraffin Embedding Station (Leica EG1150H, Germany). Subsequently, 5 µm sections were prepared from these paraffin blocks. They were deparaffinated and stained with hematoxylin and eosin or by means of the periodic acid-Schiff procedure for glycogen.

[2] = target: T2, AChE (EC 3.1.1.7) from electric eel (Electrophorus electricus, UniProt O42275); assay: biochemical; details: for IC50: AChE from electric eel, mean ± SEM of three experiments; for Selectivity index (SI) = BuChE IC50/AChE IC50: eqBuChE IC50 / eeAChE IC50
T2 construct: purchased Sigma-Aldrich C3389
Procedure: (§1) AChE (EC 3.1.1.7, Type VI-S, from electric eel, C3389; from human, C1682) and BuChE (EC 3.1.1.8, from equine serum, C0663; from human, B4186), 5,5'-dithiobis (2-nitrobenzoic acid) (DTNB, D218200), acetylthiocholine iodide (ATC, A5751), and butyrylthiocholine iodide (BTC, B3253) were obtained from Sigma-Aldrich (St. Louis, MO).
(§2) The inhibitory effects of the synthesised compounds in this paper were evaluated according to our previously reported method. […] ATC/BTC iodide solution (0.075 M) was prepared in deionised water. […] The assay buffer was prepared as follows: potassium dihydrogen phosphate (1.36 g, 10 mmol) was dissolved in 100 ml of water. The pH of the solution was then adjusted to 8.0 ± 0.1 with KOH. Stock solutions of the test samples were dissolved in ethanol to give a final concentration of 10^−4 M when diluted to the final volume of 3.32 ml. For each compound, a dilution series of at least five different concentrations (normally 10^−5–10^−9 M) were prepared.
(§3) For measurement, a cuvette containing 3.0 ml of phosphate buffer, 100 µL of AChE or BuChE, 100 µL of DTNB, and 100 µL of the test compound solution were added in sequence. The reaction was initiated after adding 20 µL of ATC or BTC, and the solution was mixed immediately. […] For the reference value, 100 µL of water replaced the test compound solution. For the blank control, additionally 100 µL of water replaced the enzyme solution. The measurement for each concentration was assayed in triplicate. GraphPad Prism 5 was used for data processing. The inhibition curve was fitted by plotting percentage enzyme activity (100% for the reference) versus logarithm of test compound concentration. The IC50 values were calculated according to the curve, and the data were shown in mean ± SEM.
(§4) The inhibitory effects on ChEs of all the target compounds were determined according to Ellman’s method. AChE from electrophorus electricus (eeAChE) and BuChE from equine serum (eqBuChE) were used in the assays.

[3] = target: T3, AChE (EC 3.1.1.7) from human (Homo sapiens, UniProt P22303); assay: Human AChE inhibition, Ellman's method; type: biochemical; details: for IC50: huAChE, mean ± SEM; for Selectivity index (SI) = BuChE IC50/AChE IC50, human enzymes: huBuChE IC50 / huAChE IC50
T3 construct: purchased Sigma-Aldrich C1682
Procedure: as §1
(§5) The inhibitory effects of the synthesised compounds in this paper were evaluated according to our previously reported method. Briefly, AChE/BuChE stock solution was diluted to give 2.5 units/mL (for eeAChE, eqBuChE, and huAChE) or 0.5 units/mL for huBuChE. ATC/BTC iodide solution (0.075 M) was prepared in deionised water. DTNB solution (0.01 M) was prepared using water containing 0.15% (w/v) sodium bicarbonate. The assay buffer was prepared as follows: potassium dihydrogen phosphate (1.36 g, 10 mmol) was dissolved in 100 ml of water. The pH of the solution was then adjusted to 8.0 ± 0.1 with KOH. Stock solutions of the test samples were dissolved in ethanol to give a final concentration of 10^−4 M when diluted to the final volume of 3.32 ml. For each compound, a dilution series of at least five different concentrations (normally 10^−5–10^−9 M) were prepared.
(§6) For measurement, a cuvette containing 3.0 ml of phosphate buffer, 100 µL of AChE or BuChE, 100 µL of DTNB, and 100 µL of the test compound solution were added in sequence. The reaction was initiated after adding 20 µL of ATC or BTC, and the solution was mixed immediately. Two minutes (eeAChE and eqBuChE) or 15 min (huAChE and huBuChE) after ATC or BTC addition, the absorption was measured at 25 °C (eeAChE and eqBuChE) or 37 °C (huAChE and huBuChE) at 412 nm, using a Shimadzu 160 spectrophotometer. For the reference value, 100 µL of water replaced the test compound solution. For the blank control, additionally 100 µL of water replaced the enzyme solution. The measurement for each concentration was assayed in triplicate. GraphPad Prism 5 was used for data processing. The inhibition curve was fitted by plotting percentage enzyme activity (100% for the reference) versus logarithm of test compound concentration. The IC50 values were calculated according to the curve, and the data were shown in mean ± SEM.

[4] = target: T4, BuChE (EC 3.1.1.8) from human (Homo sapiens, UniProt P06276); assay: Human BuChE inhibition, Ellman's method; type: biochemical; details: huBuChE; mean ± SEM
T4 construct: purchased Sigma-Aldrich B4186
Procedure: as §1, §5
as §6, with “The inhibition curve was fitted by plotting percentage enzyme activity (100% for the reference) versus logarithm of test compound concentration.” left out

[5] = target: T5, BuChE (EC 3.1.1.8) from horse serum (Equus caballus, UniProt P81908); assay: biochemical; type: biochemical; details: BuChE from horse serum; mean ± SEM of three experiments
T5 construct: purchased Sigma-Aldrich C0663; host or cells: equine serum
Procedure: as §1, §2, §3, §4

ICR mice [6] = assay: Morris water maze test, scopolamine-induced cognitive impairment; details: for Latency to target (second), Day 5 / Latency to target (second), Day 6 / Latency to target (second), Day 7 / Latency to target (second), Day 8 / Latency to target (second), Day 9: learning and training, oral, plus scopolamine; for Latency to target (second), Day 5 / Latency to target (second), Day 6 / Latency to target (second), Day 7 / Latency to target (second), Day 8 / Latency to target (second), Day 9 / Latency to Target: ICR mice; for Latency to Target: probe trial, oral administration plus scopolamine (1 mg/kg ip), mean ± SEM, n = 6; for trajectory in the Morris water maze test: scopolamine-impaired ICR mice, compared to tacrine group
[7] = 22 h after ig administration, 151.5 µmol/kg
[8] = 36 h after ig administration, 151.5 µmol/kg

T1 sequence (P05067 672-713): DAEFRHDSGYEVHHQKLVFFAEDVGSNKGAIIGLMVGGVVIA
T3 sequence (P22303 32-614): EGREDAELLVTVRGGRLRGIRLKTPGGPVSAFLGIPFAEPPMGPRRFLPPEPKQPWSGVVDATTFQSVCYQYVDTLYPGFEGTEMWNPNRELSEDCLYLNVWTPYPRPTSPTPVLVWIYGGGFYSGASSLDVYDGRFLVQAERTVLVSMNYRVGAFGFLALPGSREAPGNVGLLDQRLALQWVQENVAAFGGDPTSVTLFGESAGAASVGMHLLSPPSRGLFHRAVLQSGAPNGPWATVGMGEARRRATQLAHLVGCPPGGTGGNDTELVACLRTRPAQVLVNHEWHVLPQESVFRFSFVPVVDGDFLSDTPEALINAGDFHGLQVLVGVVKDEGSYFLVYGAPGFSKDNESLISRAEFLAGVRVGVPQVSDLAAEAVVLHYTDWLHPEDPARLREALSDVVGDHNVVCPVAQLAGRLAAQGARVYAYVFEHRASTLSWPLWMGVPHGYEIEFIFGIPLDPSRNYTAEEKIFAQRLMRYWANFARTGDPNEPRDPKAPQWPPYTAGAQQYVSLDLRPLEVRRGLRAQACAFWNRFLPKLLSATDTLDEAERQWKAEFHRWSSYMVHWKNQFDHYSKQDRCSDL
T2 sequence (O42275 24-633): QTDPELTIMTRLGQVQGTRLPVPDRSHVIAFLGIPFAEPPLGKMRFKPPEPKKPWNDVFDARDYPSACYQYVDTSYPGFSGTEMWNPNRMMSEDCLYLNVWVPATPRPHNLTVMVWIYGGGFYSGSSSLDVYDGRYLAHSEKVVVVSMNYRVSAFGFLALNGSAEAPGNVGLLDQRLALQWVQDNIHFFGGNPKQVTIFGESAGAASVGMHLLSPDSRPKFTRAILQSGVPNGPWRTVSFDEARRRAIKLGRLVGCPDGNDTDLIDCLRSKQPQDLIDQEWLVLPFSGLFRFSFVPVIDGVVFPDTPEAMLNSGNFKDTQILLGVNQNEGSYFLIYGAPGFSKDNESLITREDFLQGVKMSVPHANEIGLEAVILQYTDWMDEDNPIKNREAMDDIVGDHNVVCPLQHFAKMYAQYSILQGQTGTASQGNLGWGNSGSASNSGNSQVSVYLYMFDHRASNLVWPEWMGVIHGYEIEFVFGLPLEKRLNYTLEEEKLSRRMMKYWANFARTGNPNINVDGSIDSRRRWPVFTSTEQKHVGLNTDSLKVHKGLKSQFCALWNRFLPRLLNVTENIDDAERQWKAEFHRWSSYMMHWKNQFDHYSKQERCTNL
T4 sequence (P06276 29-602): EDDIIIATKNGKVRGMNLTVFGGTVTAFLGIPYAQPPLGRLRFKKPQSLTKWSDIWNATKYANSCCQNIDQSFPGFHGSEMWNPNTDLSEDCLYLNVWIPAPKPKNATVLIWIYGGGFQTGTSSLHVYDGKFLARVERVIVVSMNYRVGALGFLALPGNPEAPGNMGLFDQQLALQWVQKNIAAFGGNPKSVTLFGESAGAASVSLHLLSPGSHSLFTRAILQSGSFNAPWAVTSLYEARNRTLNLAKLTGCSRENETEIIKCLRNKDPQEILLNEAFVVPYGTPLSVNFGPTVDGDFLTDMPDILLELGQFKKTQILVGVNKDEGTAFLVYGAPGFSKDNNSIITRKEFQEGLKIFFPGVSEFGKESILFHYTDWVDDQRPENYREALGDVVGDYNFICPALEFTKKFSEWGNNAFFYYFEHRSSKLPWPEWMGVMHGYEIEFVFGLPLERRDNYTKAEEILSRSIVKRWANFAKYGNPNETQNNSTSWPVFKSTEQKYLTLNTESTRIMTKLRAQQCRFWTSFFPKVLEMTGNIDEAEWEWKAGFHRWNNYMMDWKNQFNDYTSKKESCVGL
T5 sequence (P81908 whole entry): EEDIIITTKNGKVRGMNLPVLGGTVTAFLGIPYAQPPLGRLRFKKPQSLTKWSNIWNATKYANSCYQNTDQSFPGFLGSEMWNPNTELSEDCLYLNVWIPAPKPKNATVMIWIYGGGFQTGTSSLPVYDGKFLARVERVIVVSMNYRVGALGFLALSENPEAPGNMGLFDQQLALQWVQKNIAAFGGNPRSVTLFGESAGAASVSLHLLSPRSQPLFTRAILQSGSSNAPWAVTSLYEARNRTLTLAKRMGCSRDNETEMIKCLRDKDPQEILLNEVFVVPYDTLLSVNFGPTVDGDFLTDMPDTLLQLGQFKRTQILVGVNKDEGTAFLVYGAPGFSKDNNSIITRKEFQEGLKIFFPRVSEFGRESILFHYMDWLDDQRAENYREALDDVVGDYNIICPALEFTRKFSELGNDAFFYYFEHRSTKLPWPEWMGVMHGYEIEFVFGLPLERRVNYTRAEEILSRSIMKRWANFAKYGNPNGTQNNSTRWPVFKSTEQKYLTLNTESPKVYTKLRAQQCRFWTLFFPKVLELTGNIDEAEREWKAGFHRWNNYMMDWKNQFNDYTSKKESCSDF

| Structure (SMILES) | inhibition at 25 µM (Aβ1–42) [%] | morphologic changes in liver (ICR mice [1]; mouse, in vivo) | IC50 [2] [nM] | Selectivity index (SI) = BuChE IC50/AChE IC50 [2] | IC50 [3] [nM] | Selectivity index (SI) = BuChE IC50/AChE IC50, human enzymes [3] | IC50 [4] [nM] | IC50 [5] [nM] | Latency to target (second), Day 5 (ICR mice [6]) [s] | Latency to target (second), Day 6 (ICR mice [6]) [s] | Latency to target (second), Day 7 (ICR mice [6]) [s] | Latency to target (second), Day 8 (ICR mice [6]) [s] | Latency to target (second), Day 9 (ICR mice [6]) [s] | Latency to Target (ICR mice [6]) [s] | trajectory in the Morris water maze test (ICR mice [6]) | also measured |
| --- | --- | --- | --- | --- | --- | --- | --- | --- | --- | --- | --- | --- | --- | --- | --- | --- |
| O=C(/C=C/c1ccc(Cl)cc1)NCCCCCCNc1c2c(nc3ccccc13)CCCC2 [Compound 27, (E)-3-(4-chlorophenyl)-N-(6-((1,2,3,4-tetrahydroacridin-9-yl)amino)hexyl)acrylamide] | 42.2 | did not cause remarkable morphologic changes in liver | 6.9 ± 1.2 | 1.9 | 16.5 | 0.3 | 5.7 | 12.9 ± 1.7 | 57.1 ± 6.8 | 41.5 ± 5.0 | 39.2 ± 4.3 | 27.6 ± 2.5 | 28.3 ± 1.7 | 25.6 ± 1.8 | much shortened distances as compared to tacrine group | – |
| COc1ccc(/C=C/C(=O)NCCCCCCNc2c3c(nc4ccccc24)CCCC3)cc1 [Compound 30, (E)-3-(4-methoxyphenyl)-N-(6-((1,2,3,4-tetrahydroacridin-9-yl)amino)hexyl)acrylamide] | 34.6 | did not cause remarkable morphologic changes in liver | 3.7 ± 1.5 | 6.1 | 15.3 | 0.5 | 8 | 22.5 ± 5.9 | 59.1 ± 7.0 | 47.3 ± 6.6 | 46.4 ± 6.8 | 32.4 ± 5.3 | 33.2 ± 4.0 | 29.4 ± 1.9 | much shortened distances as compared to tacrine group | – |
| Oc1ccc(/C=C/c2cc(O)cc(O)c2)cc1 [Resveratrol, reference compound] | 30.4 | – | – | – | – | – | – | – | – | – | – | – | – | – | – | – |
| Nc1c2c(nc3ccccc13)CCCC2 [Tacrine, reference compound] | – | – | – | – | – | – | – | – | 69.2 ± 11.0 | 58.3 ± 7.9 | 50.3 ± 6.3 | 37.1 ± 5.1 | 38.2 ± 2.6 | 34.5 ± 1.3 | – | ALT (U/L) (ICR mice [1]; 8 h after ig administration, 151.5 µmol/kg (tacrine 30 mg/kg, equimolar test compounds)): 38.0 ± 3.5 U/L; AST (U/L) (ICR mice [1]; 8 h after ig administration, 151.5 µmol/kg): 134.5 ± 9.9 U/L; ALT (U/L) (ICR mice [1]; [7]): 38.7 ± 5.2 U/L; AST (U/L) (ICR mice [1]; [7]): 125.8 ± 16.2 U/L; morphologic changes in liver (ICR mice [1]; 36 h after administration, HE staining, compared to control group): did not cause remarkable morphologic changes in liver; ALT (U/L) (ICR mice [1]; [8]): 40.9 ± 3.5 U/L; AST (U/L) (ICR mice [1]; [8]): 138.7 ± 8.5 U/L |
